# From ChEMBL document CHEMBL4765295, “Synthesis, pharmacological profile and 2D-QSAR studies of curcumin-amino acid conjugates as potential drug candidates” (Eur J Med Chem, 2020)
# Where “and” joins values, the source holds several entries; their conditions need not be identical. Equal values may be shown once.
# System: Rattus norvegicus
# Test: Anti-inflammatory activity in Wistar rat assessed as inhibition of carrageenan-induced paw edema at 10 mg/kg, ip pretreated for 1 hr followed by carrageenan challenge and measured after 3 hr relative to control (reference value: 0.00 +/-0.1 %)
# Assay type: functional
# Details: time 4 hrs
row,SMILES,inhibition in vivo at 10 mg/kg
1,COc1cc(/C=C/C(=O)/C=C(O)/C=C/c2ccc(OC(=O)[C@H](Cc3c[nH]c4ccccc34)NC(=O)OCc3ccccc3)c(OC)c2)ccc1OC(=O)[C@H](Cc1c[nH]c2ccccc12)NC(=O)OCc1ccccc1,24%

# System: Rattus norvegicus
# Test: Antiinflammatory activity in Wistar rat model of carrageenan-induced paw edema assessed as reduction in thickness of paw edema at 10 mg/kg, ip pretreated for 1 hr followed by carrageenan challenge and measured after 4 hrs (reference value: 1.40 +/-0.10 mm)
# Assay type: functional
# Details: time 5 hrs
row,SMILES,Activity
1,COc1cc(/C=C/C(=O)/C=C(O)/C=C/c2ccc(OC(=O)[C@H](Cc3c[nH]c4ccccc34)NC(=O)OCc3ccccc3)c(OC)c2)ccc1OC(=O)[C@H](Cc1c[nH]c2ccccc12)NC(=O)OCc1ccccc1,1.23 mm

# System: Salmonella typhimurium
# Test: Antibacterial activity against Salmonella typhimurium ATCC 19430 incubated for 18 hrs by agar dilution assay
# Assay type: functional, Salmonella enterica subsp. enterica serovar Typhimurium
# Details: Salmonella enterica
row,MIC,SMILES
1,0.125 µg/mL and 0.124 µM,COc1cc(/C=C/C(=O)/C=C(O)/C=C/c2ccc(OC(=O)[C@H](Cc3c[nH]c4ccccc34)NC(=O)OCc3ccccc3)c(OC)c2)ccc1OC(=O)[C@H](Cc1c[nH]c2ccccc12)NC(=O)OCc1ccccc1

# System: Pseudomonas aeruginosa
# Test: Antibacterial activity against Pseudomonas aeruginosa ATCC 27853 incubated for 18 hrs by agar dilution assay
# Assay type: functional
# Details: not given
row,MIC,SMILES
1,0.25 µg/mL and 0.248 µM,COc1cc(/C=C/C(=O)/C=C(O)/C=C/c2ccc(OC(=O)[C@H](Cc3c[nH]c4ccccc34)NC(=O)OCc3ccccc3)c(OC)c2)ccc1OC(=O)[C@H](Cc1c[nH]c2ccccc12)NC(=O)OCc1ccccc1

# System: Rattus norvegicus
# Test: Anti-inflammatory activity in Wistar rat assessed as inhibition of carrageenan-induced paw edema at 10 mg/kg, ip pretreated for 1 hr followed by carrageenan challenge and measured after 24 hr relative to control (reference value: 0.00 +/-0.3 %)
# Assay type: functional
# Details: time 25 hrs
row,SMILES,inhibition in vivo at 10 mg/kg
1,COc1cc(/C=C/C(=O)/C=C(O)/C=C/c2ccc(OC(=O)[C@H](Cc3c[nH]c4ccccc34)NC(=O)OCc3ccccc3)c(OC)c2)ccc1OC(=O)[C@H](Cc1c[nH]c2ccccc12)NC(=O)OCc1ccccc1,1%

# System: Peritoneal macrophage
# Test: Antiinflammatory activity in […] mouse Peritoneal macrophages assessed as inhibition of LPS-induced NO production at 10 uM preincubated for 1 hr followed by LPS stimulation measured after 24 hrs by Griess method relative to control (reference value: 0.0 %)
# Assay type: functional
# Design: scale not given: the % may be the effect or the level left
# Details: time 25 hrs
row,SMILES,Activity
1,COc1cc(/C=C/C(=O)/C=C(O)/C=C/c2ccc(OC(=O)[C@H](Cc3c[nH]c4ccccc34)NC(=O)OCc3ccccc3)c(OC)c2)ccc1OC(=O)[C@H](Cc1c[nH]c2ccccc12)NC(=O)OCc1ccccc1,11.08%

# System: Rattus norvegicus
# Test: Antiinflammatory activity in Wistar rat model of carrageenan-induced paw edema assessed as reduction in thickness of paw edema at 10 mg/kg, ip pretreated for 1 hr followed by carrageenan challenge and measured after 1 hr (reference value: 2.41 +/-0.05 mm)
# Assay type: functional
# Details: time 1 hr after carrageenan
row,SMILES,Activity
1,COc1cc(/C=C/C(=O)/C=C(O)/C=C/c2ccc(OC(=O)[C@H](Cc3c[nH]c4ccccc34)NC(=O)OCc3ccccc3)c(OC)c2)ccc1OC(=O)[C@H](Cc1c[nH]c2ccccc12)NC(=O)OCc1ccccc1,1.52 mm

# System: Rattus norvegicus
# Test: Antiinflammatory activity in Wistar rat model of carrageenan-induced paw edema assessed as reduction in thickness of paw edema at 10 mg/kg, ip pretreated for 1 hr followed by carrageenan challenge and measured after 2 hrs (reference value: 2.06 +/-0.09 mm)
# Assay type: functional
# Details: time 3 hrs
row,SMILES,Activity
1,COc1cc(/C=C/C(=O)/C=C(O)/C=C/c2ccc(OC(=O)[C@H](Cc3c[nH]c4ccccc34)NC(=O)OCc3ccccc3)c(OC)c2)ccc1OC(=O)[C@H](Cc1c[nH]c2ccccc12)NC(=O)OCc1ccccc1,1.48 mm

# System: Peritoneal macrophage
# Test: Antiinflammatory activity in […] mouse Peritoneal macrophages assessed as reduction in LPS-induced NO production by measuring reduction in stimulation index at 10 uM preincubated for 1 hr followed by LPS stimulation measured after 24 hrs by Griess method (reference value: 27.31 +/- 2.56 uM)
# Assay type: functional
# Details: time 25 hrs
row,SMILES,Activity
1,COc1cc(/C=C/C(=O)/C=C(O)/C=C/c2ccc(OC(=O)[C@H](Cc3c[nH]c4ccccc34)NC(=O)OCc3ccccc3)c(OC)c2)ccc1OC(=O)[C@H](Cc1c[nH]c2ccccc12)NC(=O)OCc1ccccc1,24.28 µM

# System: Rattus norvegicus
# Test: Antiinflammatory activity in Wistar rat model of carrageenan-induced paw edema assessed as reduction in thickness of paw edema at 10 mg/kg, ip pretreated for 1 hr followed by carrageenan challenge and measured after 24 hrs (reference value: 0.83 +/-0.08 mm)
# Assay type: functional
# Details: time 25 hrs
row,SMILES,Activity
1,COc1cc(/C=C/C(=O)/C=C(O)/C=C/c2ccc(OC(=O)[C@H](Cc3c[nH]c4ccccc34)NC(=O)OCc3ccccc3)c(OC)c2)ccc1OC(=O)[C@H](Cc1c[nH]c2ccccc12)NC(=O)OCc1ccccc1,0.82 mm

# System: Streptococcus pyogenes
# Test: Antibacterial activity against Streptococcus pyogenes ATCC 19615 incubated for 18 hrs by agar dilution method
# Assay type: functional
# Details: not given
row,MIC,SMILES
1,0.5 µg/mL and 0.496 µM,COc1cc(/C=C/C(=O)/C=C(O)/C=C/c2ccc(OC(=O)[C@H](Cc3c[nH]c4ccccc34)NC(=O)OCc3ccccc3)c(OC)c2)ccc1OC(=O)[C@H](Cc1c[nH]c2ccccc12)NC(=O)OCc1ccccc1

# System: Rattus norvegicus
# Test: Anti-inflammatory activity in Wistar rat assessed as inhibition of carrageenan-induced paw edema at 10 mg/kg, ip pretreated for 1 hr followed by carrageenan challenge and measured after 1 hr relative to control (reference value: 0.00 +/-0.02 %)
# Assay type: functional
# Details: time 2 hrs
row,SMILES,inhibition in vivo at 10 mg/kg
1,COc1cc(/C=C/C(=O)/C=C(O)/C=C/c2ccc(OC(=O)[C@H](Cc3c[nH]c4ccccc34)NC(=O)OCc3ccccc3)c(OC)c2)ccc1OC(=O)[C@H](Cc1c[nH]c2ccccc12)NC(=O)OCc1ccccc1,37%

# System: Rattus norvegicus
# Test: Anti-inflammatory activity in Wistar rat assessed as inhibition of carrageenan-induced paw edema at 10 mg/kg, ip pretreated for 1 hr followed by carrageenan challenge and measured after 2 hr relative to control (reference value: 0.00 +/-0.03 %)
# Assay type: functional
# Details: time 3 hrs
row,SMILES,inhibition in vivo at 10 mg/kg
1,COc1cc(/C=C/C(=O)/C=C(O)/C=C/c2ccc(OC(=O)[C@H](Cc3c[nH]c4ccccc34)NC(=O)OCc3ccccc3)c(OC)c2)ccc1OC(=O)[C@H](Cc1c[nH]c2ccccc12)NC(=O)OCc1ccccc1,28%

# System: Staphylococcus aureus
# Test: Antibacterial activity against Staphylococcus aureus ATCC 25923 incubated for 18 hrs by agar dilution method
# Assay type: functional
# Details: not given
row,MIC,SMILES
1,0.125 µg/mL and 0.124 µM,COc1cc(/C=C/C(=O)/C=C(O)/C=C/c2ccc(OC(=O)[C@H](Cc3c[nH]c4ccccc34)NC(=O)OCc3ccccc3)c(OC)c2)ccc1OC(=O)[C@H](Cc1c[nH]c2ccccc12)NC(=O)OCc1ccccc1

# System: Splenocyte
# Test: Immunomodulatory activity in Swiss albino mouse splenocytes assessed as cell viability at 10 uM by measuring stimulation index incubated for 72 hrs in presence of mitogenic stimulus phytohaemagglutinin by MTT assay (reference value: 1.00 +/- 0.24)
# Assay type: functional
# Details: not given
row,SMILES,Activity_index
1,COc1cc(/C=C/C(=O)/C=C(O)/C=C/c2ccc(OC(=O)[C@H](Cc3c[nH]c4ccccc34)NC(=O)OCc3ccccc3)c(OC)c2)ccc1OC(=O)[C@H](Cc1c[nH]c2ccccc12)NC(=O)OCc1ccccc1,2.6

# System: Rattus norvegicus
# Test: Anti-inflammatory activity in Wistar rat assessed as inhibition of carrageenan-induced paw edema at 10 mg/kg, ip pretreated for 1 hr followed by carrageenan challenge and measured after 4 hr relative to indomethacin
# Assay type: functional
# Details: time 5 hrs
row,SMILES,inhibition in vivo at 10 mg/kg
1,COc1cc(/C=C/C(=O)/C=C(O)/C=C/c2ccc(OC(=O)[C@H](Cc3c[nH]c4ccccc34)NC(=O)OCc3ccccc3)c(OC)c2)ccc1OC(=O)[C@H](Cc1c[nH]c2ccccc12)NC(=O)OCc1ccccc1,14%

# System: Rattus norvegicus
# Test: Antiinflammatory activity in Wistar rat model of carrageenan-induced paw edema assessed as reduction in thickness of paw edema at 10 mg/kg, ip pretreated for 1 hr followed by carrageenan challenge and measured after 3 hrs (reference value: 1.79 +/-0.07 mm)
# Assay type: functional
# Details: time 4 hrs
row,SMILES,Activity
1,COc1cc(/C=C/C(=O)/C=C(O)/C=C/c2ccc(OC(=O)[C@H](Cc3c[nH]c4ccccc34)NC(=O)OCc3ccccc3)c(OC)c2)ccc1OC(=O)[C@H](Cc1c[nH]c2ccccc12)NC(=O)OCc1ccccc1,1.36 mm

# System: Candida albicans
# Test: Antifungal activity against Candida albicans incubated for 18 to 24 hrs by CLSI method
# Assay type: functional
# Details: time 18-24 hrs
row,MIC,SMILES
1,1 µg/mL and 0.991 µM,COc1cc(/C=C/C(=O)/C=C(O)/C=C/c2ccc(OC(=O)[C@H](Cc3c[nH]c4ccccc34)NC(=O)OCc3ccccc3)c(OC)c2)ccc1OC(=O)[C@H](Cc1c[nH]c2ccccc12)NC(=O)OCc1ccccc1

# System: Rattus norvegicus
# Test: Anti-inflammatory activity in Wistar rat assessed as inhibition of carrageenan-induced paw edema at 10 mg/kg, ip pretreated for 1 hr followed by carrageenan challenge and measured after 4 hr relative to control (reference value: 0.00 +/-0.4 %)
# Assay type: functional
# Details: time 5 hrs
row,SMILES,inhibition in vivo at 10 mg/kg
1,COc1cc(/C=C/C(=O)/C=C(O)/C=C/c2ccc(OC(=O)[C@H](Cc3c[nH]c4ccccc34)NC(=O)OCc3ccccc3)c(OC)c2)ccc1OC(=O)[C@H](Cc1c[nH]c2ccccc12)NC(=O)OCc1ccccc1,12%

# System: Splenocyte
# Test: Immunomodulatory activity in Swiss albino mouse splenocytes assessed as cell viability at 10 uM by measuring inhibition of stimulation index incubated for 72 hrs in presence of mitogenic stimulus phytohaemagglutinin by MTT assay relative to indomethacin
# Assay type: functional
# Details: read-out: Activity
row,SMILES,viability at 10 µM
1,COc1cc(/C=C/C(=O)/C=C(O)/C=C/c2ccc(OC(=O)[C@H](Cc3c[nH]c4ccccc34)NC(=O)OCc3ccccc3)c(OC)c2)ccc1OC(=O)[C@H](Cc1c[nH]c2ccccc12)NC(=O)OCc1ccccc1,46.5%
